Results on 24 molecules are retold here after patent US20230365592A1 (Agios Pharmaceuticals, Inc., priority 2022, published 2023).

Molecules are shown by their SMILES.

In general, AC50 refers to the midpoint of the concentration-response curve, whichever way the signal moves.

This experiment addresses T1, human PAH with the R408W mutation (Homo sapiens, UniProt P00439, R408W).
T1 construct: expressed in transfected cells
T1 sequence (P00439 1-452 R408W): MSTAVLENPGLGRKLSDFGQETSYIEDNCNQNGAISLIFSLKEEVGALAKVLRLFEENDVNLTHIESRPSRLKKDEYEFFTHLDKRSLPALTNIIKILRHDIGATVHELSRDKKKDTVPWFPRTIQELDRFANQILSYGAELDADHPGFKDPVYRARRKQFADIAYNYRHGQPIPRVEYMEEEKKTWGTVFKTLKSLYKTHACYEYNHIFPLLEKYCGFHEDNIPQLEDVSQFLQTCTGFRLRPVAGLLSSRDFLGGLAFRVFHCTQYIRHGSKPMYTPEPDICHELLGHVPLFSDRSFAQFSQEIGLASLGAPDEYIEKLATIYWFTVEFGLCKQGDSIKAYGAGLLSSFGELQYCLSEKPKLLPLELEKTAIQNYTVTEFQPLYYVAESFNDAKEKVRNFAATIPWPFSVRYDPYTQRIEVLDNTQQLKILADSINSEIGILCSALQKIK
Kind of experiment: Cell Based Phenylalanine Flux Assay.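 Note: after compound treatment, cells received sepiapterin plus isotope-labelled Phenylalanine for 4 hours, then labelled Tyrosine in the medium was quantified, 10-point 2-fold dilution series run in duplicate.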 The note with it: A375 cells expressing human R408W PAH; 24 hrs compound incubation; 13C-Tyrosine by LC-MS; average where tested multiple times; read-out: AC50.
Regarding `Clc1cccn2nc([C@@H]3c4nc[nH]c4CCN3c3nnc(C4CC4)o3)cc12` [Example 1455, (S)-2-(4-(4-chloropyrazolo[1,5-a]pyridin-2-yl)-1,4,6,7-tetrahydro-5H-imidazo[4,5-c]pyridin-5-yl)-5-cyclopropyl-1,3,4-oxadiazole], the AC50 is < 500 nM.

For `Cn1ccc(-c2nnc(C(=O)N3CCc4[nH]cnc4[C@H]3c3cc4cccc(F)n4n3)o2)n1` [Example 1456, (S)-(4-(7-fluoropyrazolo[1,5-a]pyridin-2-yl)-6,7-dihydro-1H-imidazo[4,5-c]pyridin-5(4H)-yl)(5-(1-methyl-1H-pyrazol-3-yl)-1,3,4-oxadiazol-2-yl)methanone], the AC50 is < 500 nM.

In the case of `Cn1ccc(-c2nnc(C(=O)N3CCc4[nH]cnc4[C@@H]3c3cc4cccc(F)n4n3)o2)n1` [Example 1457, (R)-(4-(7-fluoropyrazolo[1,5-a]pyridin-2-yl)-6,7-dihydro-1H-imidazo[4,5-c]pyridin-5(4H)-yl)(5-(1-methyl-1H-pyrazol-3-yl)-1,3,4-oxadiazol-2-yl)methanone], the AC50 fell in the range of 1000 to 5000 nM.

Take `O=C(c1nnc(-c2ncccc2F)o1)N1CCc2[nH]cnc2[C@@H]1c1cc2cccc(F)n2n1` [Example 1458, (R)-(4-(7-fluoropyrazolo[1,5-a]pyridin-2-yl)-6,7-dihydro-1H-imidazo[4,5-c]pyridin-5(4H)-yl)(5-(3-fluoropyridin-2-yl)-1,3,4-oxadiazol-2-yl)methanone]: the AC50 was 1000 to 5000 nM.

For `O=C(c1nnc(-c2ncccc2F)o1)N1CCc2[nH]cnc2[C@H]1c1cc2cccc(F)n2n1` [Example 1459, (S)-(4-(7-fluoropyrazolo[1,5-a]pyridin-2-yl)-6,7-dihydro-1H-imidazo[4,5-c]pyridin-5(4H)-yl)(5-(3-fluoropyridin-2-yl)-1,3,4-oxadiazol-2-yl)methanone], the AC50 was < 500 nM.

For `O=C(c1nnc(-c2cnccn2)o1)N1CCc2[nH]cnc2[C@H]1c1cc2cccc(F)n2n1` [Example 1461, (S)-(4-(7-fluoropyrazolo[1,5-a]pyridin-2-yl)-6,7-dihydro-1H-imidazo[4,5-c]pyridin-5(4H)-yl)(5-(pyrazin-2-yl)-1,3,4-oxadiazol-2-yl)methanone], the AC50 lay in the range of 500 to 1000 nM.

As for `Cc1c(-c2nnc(C(=O)N3CCc4[nH]cnc4[C@H]3c3cc4cccc(F)n4n3)o2)cnn1C` [Example 1462, (S)-(5-(1,5-dimethyl-1H-pyrazol-4-yl)-1,3,4-oxadiazol-2-yl)(4-(7-fluoropyrazolo[1,5-a]pyridin-2-yl)-6,7-dihydro-1H-imidazo[4,5-c]pyridin-5(4H)-yl)methanone], the AC50 was < 500 nM.

For the molecule `Cc1c(-c2nnc(C(=O)N3CCc4[nH]cnc4[C@@H]3c3cc4cccc(F)n4n3)o2)cnn1C` [Example 1463, (R)-(5-(1,5-dimethyl-1H-pyrazol-4-yl)-1,3,4-oxadiazol-2-yl)(4-(7-fluoropyrazolo[1,5-a]pyridin-2-yl)-6,7-dihydro-1H-imidazo[4,5-c]pyridin-5(4H)-yl)methanone], the AC50 was in the range of 1000 to 5000 nM.

With `Cc1cccc(-c2nnc(C(=O)N3CCc4[nH]cnc4[C@@H]3c3cc4c(C(F)F)cccn4n3)o2)n1` [Example 1464, (R)-(4-(4-(difluoromethyl)pyrazolo[1,5-a]pyridin-2-yl)-6,7-dihydro-1H-imidazo[4,5-c]pyridin-5(4H)-yl)(5-(6-methylpyridin-2-yl)-1,3,4-oxadiazol-2-yl)methanone], the AC50 lay in the range of 1000 to 5000 nM.

In the case of `Cc1cccc(-c2nnc(C(=O)N3CCc4[nH]cnc4[C@H]3c3cc4c(C(F)F)cccn4n3)o2)n1` [Example 1465, (S)-(4-(4-(difluoromethyl)pyrazolo[1,5-a]pyridin-2-yl)-6,7-dihydro-1H-imidazo[4,5-c]pyridin-5(4H)-yl)(5-(6-methylpyridin-2-yl)-1,3,4-oxadiazol-2-yl)methanone], the AC50 was < 500 nM.

Consider `Cc1nn(C)cc1-c1nnc(C(=O)N2CCc3[nH]cnc3[C@@H]2c2cc3c(C(F)F)cccn3n2)o1` [Example 1467, (R)-(4-(4-(difluoromethyl)pyrazolo[1,5-a]pyridin-2-yl)-6,7-dihydro-1H-imidazo[4,5-c]pyridin-5(4H)-yl)(5-(1,3-dimethyl-1H-pyrazol-4-yl)-1,3,4-oxadiazol-2-yl)methanone], for which the AC50 lay within 1000 to 5000 nM.

Turning to `O=C(c1nnc(-c2cccnc2)o1)N1CCc2[nH]cnc2[C@H]1c1cc2cccc(C(F)F)n2n1` [Example 1468, (S)-(4-(7-(difluoromethyl)pyrazolo[1,5-a]pyridin-2-yl)-6,7-dihydro-1H-imidazo[4,5-c]pyridin-5(4H)-yl)(5-(pyridin-3-yl)-1,3,4-oxadiazol-2-yl)methanone], the AC50 was < 500 nM.

On to `O=C(c1nnc(-c2cccnc2)o1)N1CCc2[nH]cnc2[C@@H]1c1cc2cccc(C(F)F)n2n1` [Example 1469, (R)-(4-(7-(difluoromethyl)pyrazolo[1,5-a]pyridin-2-yl)-6,7-dihydro-1H-imidazo[4,5-c]pyridin-5(4H)-yl)(5-(pyridin-3-yl)-1,3,4-oxadiazol-2-yl)methanone], for which the AC50 is > 5000 nM.

With `Cc1cccc(-c2nnc(C(=O)N3CCc4[nH]cnc4[C@H]3c3cc4c(F)cccn4n3)o2)n1` [Example 1470, (S)-(4-(4-fluoropyrazolo[1,5-a]pyridin-2-yl)-6,7-dihydro-1H-imidazo[4,5-c]pyridin-5(4H)-yl)(5-(6-methylpyridin-2-yl)-1,3,4-oxadiazol-2-yl)methanone], the AC50 was < 500 nM.

For the molecule `Cc1cccn2nc([C@@H]3c4nc[nH]c4CCN3C(=O)c3nnc(-c4cnn(C(F)(F)F)c4)o3)cc12` [Example 1472, (S)-(4-(4-methylpyrazolo[1,5-a]pyridin-2-yl)-6,7-dihydro-1H-imidazo[4,5-c]pyridin-5(4H)-yl)(5-(1-(trifluoromethyl)-1H-pyrazol-4-yl)-1,3,4-oxadiazol-2-yl)methanone], the AC50 was in the range of 500 to 1000 nM.

Consider `Cc1cccn2nc([C@H]3c4nc[nH]c4CCN3C(=O)c3nnc(-c4cnn(C(F)(F)F)c4)o3)cc12` [Example 1473, (R)-(4-(4-methylpyrazolo[1,5-a]pyridin-2-yl)-6,7-dihydro-1H-imidazo[4,5-c]pyridin-5(4H)-yl)(5-(1-(trifluoromethyl)-1H-pyrazol-4-yl)-1,3,4-oxadiazol-2-yl)methanone], for which the AC50 is 1000 to 5000 nM.

Turning to `O=C(c1nnc(-c2ccn(C(F)(F)F)n2)o1)N1CCc2[nH]cnc2[C@@H]1c1cc2cccc(F)n2n1` [Example 1475, (R)-(4-(7-fluoropyrazolo[1,5-a]pyridin-2-yl)-6,7-dihydro-1H-imidazo[4,5-c]pyridin-5(4H)-yl)(5-(1-(trifluoromethyl)-1H-pyrazol-3-yl)-1,3,4-oxadiazol-2-yl)methanone], the AC50 was 1000 to 5000 nM.

With `O=C(c1nnc(-c2ccn(C(F)(F)F)n2)o1)N1CCc2[nH]cnc2[C@@H]1c1cc2c(Cl)cccn2n1` [Example 1477, (R)-(4-(4-chloropyrazolo[1,5-a]pyridin-2-yl)-6,7-dihydro-1H-imidazo[4,5-c]pyridin-5(4H)-yl)(5-(1-(trifluoromethyl)-1H-pyrazol-3-yl)-1,3,4-oxadiazol-2-yl)methanone], the AC50 was in the range of 1000 to 5000 nM.

For `Cc1cccn2nc([C@@H]3c4nc[nH]c4CCN3C(=O)c3nnc(-c4ccn(C(F)(F)F)n4)o3)cc12` [Example 1478, (S)-(4-(4-methylpyrazolo[1,5-a]pyridin-2-yl)-6,7-dihydro-1H-imidazo[4,5-c]pyridin-5(4H)-yl)(5-(1-(trifluoromethyl)-1H-pyrazol-3-yl)-1,3,4-oxadiazol-2-yl)methanone], the AC50 is < 500 nM.

Turning to `O=C(c1nnc(-c2ccn(C(F)(F)F)n2)o1)N1CCc2[nH]cnc2[C@H]1c1cc2c(C(F)F)cccn2n1` [Example 1480, (S)-(4-(4-(difluoromethyl)pyrazolo[1,5-a]pyridin-2-yl)-6,7-dihydro-1H-imidazo[4,5-c]pyridin-5(4H)-yl)(5-(1-(trifluoromethyl)-1H-pyrazol-3-yl)-1,3,4-oxadiazol-2-yl)methanone], the AC50 was < 500 nM.

`O=C(c1nnc(-c2ccn(C(F)(F)F)n2)o1)N1CCc2[nH]cnc2[C@@H]1c1cc2c(C(F)F)cccn2n1` [Example 1481, (R)-(4-(4-(difluoromethyl)pyrazolo[1,5-a]pyridin-2-yl)-6,7-dihydro-1H-imidazo[4,5-c]pyridin-5(4H)-yl)(5-(1-(trifluoromethyl)-1H-pyrazol-3-yl)-1,3,4-oxadiazol-2-yl)methanone]: the AC50 lay within 1000 to 5000 nM.

For `CC(C)c1nnc(C(=O)N2CCc3[nH]cnc3[C@@H]2c2cc3c(Cl)cccn3n2)o1` [Example 1485, (R)-(4-(4-chloropyrazolo[1,5-a]pyridin-2-yl)-6,7-dihydro-1H-imidazo[4,5-c]pyridin-5(4H)-yl)(5-isopropyl-1,3,4-oxadiazol-2-yl)methanone], the AC50 lay within 1000 to 5000 nM.

In the case of `CC(C)c1nnc(C(=O)N2CCc3[nH]cnc3[C@H]2c2cc3c(C(F)(F)F)cccn3n2)o1` [Example 1486, (S)-(5-isopropyl-1,3,4-oxadiazol-2-yl)(4-(4-(trifluoromethyl)pyrazolo[1,5-a]pyridin-2-yl)-6,7-dihydro-1H-imidazo[4,5-c]pyridin-5(4H)-yl)methanone], the AC50 is < 500 nM.

As for `CC(C)c1nnc(C(=O)N2CCc3[nH]cnc3[C@@H]2c2cc3c(C(F)(F)F)cccn3n2)o1` [Example 1487, (R)-(5-isopropyl-1,3,4-oxadiazol-2-yl)(4-(4-(trifluoromethyl)pyrazolo[1,5-a]pyridin-2-yl)-6,7-dihydro-1H-imidazo[4,5-c]pyridin-5(4H)-yl)methanone], the AC50 is > 5000 nM.
